Reference: patent US9540646B2, “Cellular targets for HIV infection” (priority 2012, dated 2017)
Entries after “also recorded” stand apart in the source; their conditions may differ.

Columns and labels:
HIV = HIV replication in macrophage cultures, strain not named; format: cell-based; conditions: macrophage cultures; BBG concentration and strain not printed at the place
Experimental: (§1) HIV replication: After 6 days in culture, macrophages in 48-well plates at a density of 10^5 cells per well were inoculated with 2-20 ng/ml HIVADA, 2 ng/ml HIVYU-2, or 0.2 ng/ml HIVBaL for 24 hours in the presence or absence of purinergic receptor inhibitors. 5 wells were inoculated per condition. After 24 hours, cells were washed with PBS and then cultured with media. Supernatants were collected and medium was changed every 24 hours until 7 days post inoculation (d.p.i.). When the inhibitors oATP, A-740003, MRS 2179, NF 279, BBG, or suramin, were used, they were added when the medium was changed every 24 hours. Viral replication was analyzed by HIV p24 ELISA (Advanced Bioscience Laboratories, Kensington, Md.) according to the manufacturer's instructions

Macrophages = experiment: Cell viability of macrophages, live/dead assay; format: cell-based; conditions: 100 μM, 24 hours
Description: Cells were imaged using a Zeiss AxioObserver.D1 with an LD Plan-Neofluar 20×/0.4 air objective lens. Images were collected at room temperature through a Zeiss AxioCam MRm camera using Axiovision software.

[1] = cited from earlier work
HIVBaL = experiment: HIV replication in primary human macrophages, HIV p24 ELISA; format: cell-based, Human immunodeficiency virus-1 (HIV); conditions: 100 μM oATP; according to d.p.i.; N=3
Description: (§2) Monocyte isolation and macrophage culture: Human monocytes were isolated from leukopaks obtained from the New York Blood Center. Peripheral blood mononuclear cells (PBMCs) were isolated by differential centrifugation using a Ficoll gradient (GE Healthcare, Piscataway, N.J.) and CD14 positive cells were isolated from PBMCs using CD14 monoclonal antibodies that were then bound by magnetic nanoparticles and separated using a magnetic field (Stem Cell Technologies, Vancouver, BC, Canada). Isolated CD14 positive cells were cultured adherently for 6 days in the presence of 10 ng/ml macrophage-colony stimulating factor (PeproTech, Rocky Hill, N.J.) in RPMI 1640 with 10% FBS, 5% human AB serum, 1% P/S, and 10 mM HEPES to differentiate the cells into macrophages.
as §1

HIVADA [2] = experiment: as above; format: cell-based, Human immunodeficiency virus-1 (HIV)
Description: as §2, §1

HIVYU-2 = experiment: as above; format: cell-based, Human immunodeficiency virus-1 (HIV); conditions: 100 μM oATP; every d.p.i.; N=3
Description: as §2, §1

purinergic receptors = conditions: in vivo mouse model; reference 99; cited from earlier work
[3] = tested on: β-lactamase containing HIVBaL; experiment: HIV Entry Assay (β-lactamase / CCF2-AM) in primary human macrophages; format: cell-based, Human immunodeficiency virus-1 (HIV); conditions: 100 μM; 4 hours; MOI 0.001-0.01; oATP N=5, others N=3
Experimental: HIV Entry Assay: Primary human macrophages were cultured in black 96-well plates with a clear bottom (Corning Inc., Corning, N.Y.) at a density of 43,000 cells per well. After 7-8 days in culture, cells were inoculated with β-lactamase containing HIVBaL at a multiplicity of infection (MOI) of 0.01, 0.005, or 0.001 in the presence or absence of the purinergic receptor inhibitors oATP, NF 279, A-740003, or MRS 2179 for 4 hours. Beta-lactamase containing HIVBaL was generated as described previously (27). Briefly, HEK-293T cells were transfected using calcium phosphate with two plasmids, one containing the HIVBaL genome, pWT/BaL (NIH repository), the other containing β-lactamase fused to REV vpr, pMM310 (NIH repository). Cells were transfected for 16 hours and then supernatant was collected 24 and 48 hours following transfection. […] Viral stocks were generated by sucrose gradient purification of the transfection supernatants.
Alter viral inoculation of primary human macrophages, cells were washed with phenol red-free DMEM (Gibco) then loaded with CCF2-AM for 6 hours at room temperature using the GeneBLAzer In Vivo Detection Kit (Invitrogen, Carlsbad, Calif.). CCF2-AM fluoresces green due to an internal fluorescence resonance energy transfer, but when cleaved by β-lactamase, this interaction is lost and the molecule fluoresces blue. Cells were imaged using an Olympus IX70 with a Plan 10×/0.25 air objective lens. Images were collected at room temperature through an Olympus E-620LS camera attached to the microscope through an OM adapter MF-1. Images were collected directly onto a memory card and there was no image processing following image collection. Images were collected for 8 fields in 4 separate wells per condition and percentage of cells positive for viral entry was determined by counting the number of blue cells (cells that virus had entered) as compared to the total number of blue and green cells.

HIVADA [4] = experiment: Immunofluorescence, percentage of HIV p24 positive macrophages; format: cell-based, Human immunodeficiency virus-1 (HIV); conditions: 100 μM oATP, 7 d.p.i.
Experimental: Immunofluorescence: After 6 days in culture, macrophages cultured in 35 mm MatTek dishes at a density of 10^6 cells per dish were inoculated with 20 ng/ml HIVADA for 24 hours in the presence or absence of oATP. Two MatTek dishes were inoculated per condition. After 24 hours, cells were washed with PBS and cultured with media. Fresh oATP was added and the medium was changed every 24 hours until 7 d.p.i. Cells were then fixed using cold 70% ethanol for 20 minutes. Cells were washed with PBS and blocked using 0.9% fish gelatin, 50 μM EDTA. 1% horse serum, and 1% globulin-free albumin. The following primary antibodies were used: mouse monoclonal HIV p24 antibody from Abeam at a 1:50 dilution (Cambridge, Mass.) or mouse myeloma IgG1 (Sigma) as a negative control. Secondary antibody staining was with anti-mouse IgG F(ab)′2 fragment conjugated to FITC (Sigma). Actin was stained using Texas Red-X conjugated to phalloidin (Invitrogen, Eugene, Oreg.). ProLong Gold antifade reagent containing DAPI was added to all cells to stain for nuclei. Cells were imaged using a Zeiss AxioObserver.D1 with an LD Plan-Neofluar 20×/0.4 air objective lens. […] Images for 15 fields per condition were analyzed and percentage of p24 positive cells determined by counting number of nuclei in cells with green cytoplasmic staining.

Panx1 hemichannels [5] = target: T1, Panx1 hemichannels (Homo sapiens, UniProt Q96RD7); experiment: Etd uptake in CD4+ T lymphocytes induced by chemokines or gp120; format: cell-based; design: endogenous in cells; host or cells: primary human PBMCs and purified CD4+ T lymphocytes from leukopacks (New York Blood Center); conditions: gp120 1 μg/ml, 5 min
T1 sequence (Q96RD7 whole entry): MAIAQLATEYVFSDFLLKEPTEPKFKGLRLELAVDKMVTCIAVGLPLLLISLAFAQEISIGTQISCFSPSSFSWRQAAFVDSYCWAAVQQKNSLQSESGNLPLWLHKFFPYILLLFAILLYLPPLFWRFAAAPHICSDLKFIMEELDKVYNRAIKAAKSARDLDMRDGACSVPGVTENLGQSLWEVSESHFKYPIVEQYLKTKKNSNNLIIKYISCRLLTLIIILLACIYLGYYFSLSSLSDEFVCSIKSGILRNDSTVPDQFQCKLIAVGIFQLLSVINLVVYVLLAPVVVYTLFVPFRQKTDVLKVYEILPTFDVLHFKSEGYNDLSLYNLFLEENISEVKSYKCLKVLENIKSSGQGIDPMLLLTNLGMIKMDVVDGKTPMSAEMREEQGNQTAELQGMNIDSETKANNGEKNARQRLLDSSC
Experimental: (§3) Dye uptake and time lapse fluorescence imaging. To characterize the functional state of Panx1 hemichannels, dye uptake experiments using ethidium (Etd) bromide were performed as previously described (18, 19). Cells were washed twice in Hank's balanced salt solution and then exposed to Locke's solution (containing: 154 mM NaCl, 5.4 mM KCl, 2.3 mM CaCl2, 5 mM HEPES and pH 7.4) with 5 μM Etd and time lapse microscopy was performed. Phase-contrast and fluorescence microscopy with time-lapse imaging were used to record cell appearance and fluorescence intensity changes in each condition. Fluorescence was recorded every 30 s. The NIH ImageJ program was used for off-line image analysis and fluorescence quantification. For data representation and calculation of Etd uptake slopes, the average of two independent background fluorescence intensity measurements (FB, expressed as arbitrary units, AU) was subtracted from fluorescence intensity′ in each cell (F1). Results of this calculation (F1-FB), for at least 20 cells, were averaged and plotted against time (expressed in minutes). Slopes were calculated using Microsoft Excel software and expressed as AU/min. Microscope and camera settings remained the same in all experiments. Dead cells were clearly identified during the time lapse microscopy due to their non specific Etd uptake (not inhibited by hemichannel blockers) and were not quantified.

Panx1 hemichannels [6] = target: T1, Panx1 hemichannels; experiment: HIV-induced ethidium (Etd) dye uptake, time lapse fluorescence imaging, in PBMCs and CD4+ T lymphocytes; format: cell-based; design: endogenous in cells; host or cells: primary human PBMCs and purified CD4+ T lymphocytes from leukopacks (New York Blood Center); conditions: PBMCs exposed to HIVADA; CD4+ T lymphocytes exposed to HIVADA, HIVBal or HIVLAI; 5 min and 72 h; Prob 500 μM, 10Panx1 200 μM, scrPanx1 200 μM, La3+ 200 μM, Cx43E2 1:500, siRNA 10 nM
Experimental: Isolation of human PBMCs and CD4+ T lymphocytes. Anticoagulated blood was obtained from leukopacks obtained from the New York Blood Center as described before (16). PBMCs were isolated by under-layering with Ficoll-Paque (Amersham Bioscience, Uppsala, Sweden) according to the procedure described by the manufacturer. Purified PBMC used in these studies were ˜10% monocytes and ˜90% lymphocytes and other hematopoietic cells, as determined by incubation with premixed human CD45 and CD14 monoclonal antibodies conjugated to FITC and PE, respectively (1:50, Caltag Laboratories, Burlingame, Calif.), followed by fluorescence-activated cell sorter analysis (FACS) as we previously described (17). To obtain a pure population of CD4+ T lymphocytes, monocytes were removed from PBMCs by using CD14 coupled magnetic beads and subsequently CD4+ T lymphocytes were isolated with CD4 coupled magnetic beads (Stem Cell Technologies, Vancouver, BC, Canada).
(§4) HIV-infection and quantification of replication. Cell-free viral inocula were obtained from the National Institutes of Health AIDS Research and Reference Reagent Program. Three isolates were used: HIVADA, and HIVBal, two R5 isolates and HIVLAI, an X4 isolate, PBMCs and purified CD4+ T lymphocytes were isolated and activated with phytohemagglutinin (PHA; 5 μg/ml) plus interleukin (IL-2; 5%) in RPMI 1640 for 48 h in polypropylene tubes at a density of 2×10^6 […] PBMCs and CD4+ T lymphocytes were then infected by incubation for 24 h with viral stocks of HIVADA (20 ng p24/ml/1×10^6 cells), HIVLAI (20 ng p24/ml/1×10^6 cells) or HIVBal (0.001 MOI), washed thoroughly, resuspended in fresh medium, and maintained in polypropylene tubes. Uninfected control cells were activated with PHA plus IL-2 for 48 h, washed, and maintained in polypropylene tubes in fresh media without any virus. To determine the levels of HIV infection, the amount of HIV-p24 released into the medium was determined by ELISA (PerkinElmer, Boston, Mass.)
as §3

HIVADA [7] = experiment: HIV replication in CD4+ T lymphocytes, HIV-p24 ELISA; format: cell-based, Human immunodeficiency virus-1 (HIV); conditions: supernatants each day for 7 days, 10Panx1 200 μM, scrPanx1 200 μM, siRNA 10 nM
Experimental: as §4

Panx1 hemichannels [8] = target: T1, Panx1 hemichannels; experiment: HIV-induced Etd uptake in CD4+ T lymphocytes by flow cytometry (FACS); format: cell-based; design: endogenous in cells; host or cells: primary human PBMCs and purified CD4+ T lymphocytes from leukopacks (New York Blood Center); conditions: HIVADA, 5 min and 72 h
Experimental: Flow cytometry. To measure Etd uptake in CD4+ T cell populations FACS analysis was performed of cells under control conditions or after HIV exposure at several time points. Etd uptake experiments were performed in CD4+ lymphocytes (3-5×10^5), and after the respective time of Etd uptake, cells were fixed with 2% paraformaldehyde for 30 min at room temperature, incubated with 1% BSA in PBS for 30 min and stained with CD4 antibody for 30 min at 4° C. For analyses of Etd positive populations, 10,000 events were acquired on a BD FACS Canto II and analyzed using FlowJo (Ashland, Oreg.) software as we previously described (17, 20).

CCOc1ccc(Nc2ccc(/C(=C3C=C/C(=[N+](/CC)Cc4cccc(S(=O)(=O)[O-])c4)C=C/3C)c3ccc(N(CC)Cc4cccc(S(=O)(=O)[O-])c4)cc3C)cc2)cc1.[Na+] [BBG, brilliant blue G]
inhibition of viral replication relative to cultures infected with HIV only (HIV): 54-90%
cell viability (live/dead assay) (Macrophages): None of the antagonist caused any decrease in cell viability
recovery after spinal cord injury ([1]; rat model of traumatic spinal cord injury, reference 75): recovery of motor function and limited inflammation following spinal cord injury
toxicity in vivo ([1]; rat, in vivo): without any toxicity

Nc1ncnc2c1ncn2[C@@H](C=O)O[C@@H](C=O)COP(=O)(O)OP(=O)(O)OP(=O)(O)O [oATP, oxidized ATP]
HIVBaL replication reduced relative to HIV only (HIVBaL): 89-97%
effect on HIVADA p24 production (HIVADA [2]; 1 μM oATP, N=5): no effect
inhibition of HIVADA p24 production relative to HIV only (HIVADA [2]; 10 μM oATP, depending upon d.p.i., N=5): 50-85%
HIVADA replication reduced (HIV p24) relative to HIV only (HIVADA [2]; 100 μM oATP, depending upon the d.p.i., up to 7 d.p.i., N=10): 92-99%
HIVYU-2 replication reduced relative to HIV only (HIVYU-2): over 99%
onset of diabetes and inflammatory bowel disease (purinergic receptors): can prevent the onset of diabetes and inflammatory bowel disease
cell viability (live/dead assay) (Macrophages): None of the antagonist caused any decrease in cell viability; also recorded: did not reduce cell viability
reduction in viral entry (percentage of cells with viral entry) relative to HIV only [3]: 57%
decrease in the percentage of HIV p24 positive cells (HIVADA [4]; 20 ng/ml HIVADA, N=3): 92%
multinucleated giant cells in cultures (HIVADA [4]; HIVADA, compared to HIV infected cultures): very few multinucleated giant cells were detected

FADRYWAQVS (scrambled peptide) [scrPanx1]
gp120-induced Etd uptake, in presence of blockers (Panx1 hemichannels [5]): No effects
Etd uptake (rate) induced by the virus (Panx1 hemichannels [6]): did not affect
HIV replication (HIV-p24 release into the media) (HIVADA [7]): did not alter

WRQAAFVDSY (Panx1 mimetic blocking peptide) [10Panx1]
gp120-induced Etd uptake, in presence of blockers (Panx1 hemichannels [5]): inhibited
Etd uptake (rate) induced by the virus (Panx1 hemichannels [6]): completely blocked; also recorded: completely reduced
Etd uptake induced by the virus, analyzed by FACS (Panx1 hemichannels [8]): reduced Etd uptake; also recorded: reduced to control conditions (100%)
HIV replication (HIV-p24 release into the media) (HIVADA [7]): abolished HIV replication to almost control undetectable levels; also recorded: dramatically reduced
